# Measured values reported in ChEMBL document CHEMBL1157539, “Thousands of chemical starting points for antimalarial lead identification” (Nature, 2010).
# System: Plasmodium falciparum
# Test: GSK_TCMDC: Inhibition of Plasmodium falciparum 3D7 in whole erythrocytes, using parasite LDH activity as an index of growth.
# Type: functional, organism-based
# Settings: not given
row,SMILES,XC50 [nM]
1,CCOc1ccc2nccc([C@@H](O)[C@@H]3C[C@@H]4CCN3C[C@@H]4CC)c2c1 [ETHYLHYDROCUPREINE],612
2,Cc1ccc(/C=C/C(=O)NC2CCC(CN3CCC(c4c[nH]c5ccccc45)CC3)CC2)cc1C (centres undefined),821

# Same assay, conditions: Plasmodium falciparum, 3D7
row,SMILES,XC50 [nM]
1,CCNC(C)(C)CN(Cc1ccc(-c2ccc(C(F)(F)F)cc2)cc1)C(=O)Cn1c(CCc2cccc(F)c2F)nc(=O)c2ccccc21,813
2,COc1ccc(Br)cc1C1Nc2ccc3ccccc3c2C2=C1C(=O)CC(c1ccccc1)C2 (centres undefined),590
3,CCc1cc(Br)c(CNCCCNc2cc(=O)c3ccccc3[nH]2)s1,949
4,CC(C)(C)c1ccc(-c2nc3c(ccc4nc(N)nc(N)c43)[nH]2)cc1,158
5,O=C(N[C@@H](CC1CCCCC1)C(=O)NCCN1CCCCC1)c1ccc(O)c(-c2cccc(C(F)(F)F)c2)c1,831
6,CCc1c[nH]c2c(N3CCCCS3(=O)=O)cc(C(=O)N[C@@H](Cc3ccccc3)[C@H](O)CNCc3cccc(OC)c3)cc12,909
7,CC[C@H](C)[C@@H](C(=O)N1CCOCC1)N1CC[C@H](NS(=O)(=O)CC(C)(C)c2ccc(Cl)cc2)C1=O,550
8,O=C(O)C1CC(=O)N(c2ccc(Cl)cc2)C1 (centres undefined),219
9,CC(C)n1cc2c(ccc3nc(N)nc(N)c32)n1,36.9
10,CC1(C)CCCN(C(=O)Cc2ccc3c(c2)CCCC3)C1CN1CC=CC1 (centres undefined),720
11,Cc1nc(NCCCn2ccnc2)cc(-c2cncc(-c3ccc(OC(F)(F)F)cc3)c2)n1,616
12,O=C(NCCN1CCC(NC(=O)c2ccc(-c3ccccn3)s2)CC1)c1cccc(C(F)(F)F)c1,861
13,CN(CCON1C(=N)N=C(N)NC1(C)C)c1ccccc1,19.4
14,CO/N=C(\C)c1ccc2c(c1)CCN(CCC1CCC(NC(=O)/C=C/c3ccc(F)cc3)CC1)CC2 (centres undefined),1070
15,Cc1cc(F)ccc1Nc1nc(N(C)c2ccccc2)c2cc(OCCCN(C)C)ccc2n1,717
16,CCN(CC)CCCN(C(=O)Nc1ccc(C#N)cc1)c1nc(-c2ccc(F)cc2)cs1,650
17,COc1ccc(CNCc2ccccc2)cc1-c1ccc(S(=O)(=O)NCCN2CCCC2)c(C)c1,856
18,Cc1cccc2nc(-c3ccc(-c4cccc(C(=O)NCCN5CCCC5)c4)s3)[nH]c12,1140
19,COc1ccc(Nc2ncc3c(-c4ccc(NC(=O)c5cccc(C(F)(F)F)c5)cc4)c[nH]c3n2)cc1OC,1030
20,CS(=O)(=O)Nc1cccc(-c2cnc3[nH]cc(-c4ccc(C(=O)O)c(F)c4)c3c2)c1,834
21,O=C(NCCNc1nc(NCCNC(=O)Nc2ccccc2)c2ccc(=O)n(-c3c(F)cccc3F)c2n1)Nc1ccccc1,170
22,NS(=O)(=O)c1cccc(Br)c1,888
23,CCC1(CC)C(=O)N=C(N2CCCCC2)N(C)C1=O,303
24,C[C@@H](N)C#Cc1cc2c(Nc3ccc(OCc4cccc(F)c4)c(Cl)c3)ncnc2s1,1060
25,Cc1cc(=O)oc2c1ccc1oc(C(O)c3ccc(Cl)cc3)c(C)c12 (centres undefined),130

row,SMILES,XC50 [nM]
1,CCN(CC)CCCNc1cc[n+]([O-])c2cc3ccccc3cc12,871
2,O=C(Nc1cc(Cl)c(Cl)cc1NC(=O)c1cccc(-c2ccccc2)c1O)c1cccc(-c2ccccc2)c1O,505
3,Cc1cc2nc(-c3ccc(C(=O)NCc4cccc(F)c4)cc3)[nH]c2cc1C,962
4,CC(=O)Nc1ccc2[nH]cc(C3CCN(CC4CCN(C(=O)/C=C/c5ccc(Cl)c(Cl)c5)CC4)CC3)c2n1,161
5,CC(C)Cn1c(Sc2ccc(C#N)c([N+](=O)[O-])c2)nnc1-c1cccc(Cl)c1,301
6,Cc1sc(CNCCCNc2cc(=O)c3ccccc3[nH]2)c(C(F)(F)F)c1C,734
7,N=C(NCCCCCCNC(=N)NC(=N)c1ccc(Cl)cc1)NC(=N)c1ccc(Cl)cc1,212
8,CCCCC(CC)NC(=O)[C@H]1CNCCN1C(=O)CCCc1ccccc1 (some centres undefined),885
9,CNC(=O)Cc1ccc(C(=O)Nc2cccc(-c3csc(-c4nc5ccccc5[nH]4)c3)c2)cc1,273
10,COc1cc(C(=O)N2CCOC(CCN3CCC4c5ccccc5CC43)(c3ccc(Cl)c(Cl)c3)C2)cc(OC)c1OC (centres undefined),529
11,CC(CNC(=O)c1cc2c(Cl)cc(Cl)cc2[nH]1)CNc1cc(=O)c2ccccc2[nH]1 (centres undefined),715
12,COc1ccc(-c2cnc3ccc(NC4CCC(O)CC4)nn23)cn1 (centres undefined),715
13,O=C1OC2(CCN(C(=O)c3ccc(-n4cnnn4)cc3)CC2)CN1Cc1ccc(Cl)c(Cl)c1,715
14,O=C(Cc1c[nH]cn1)Nc1cccc(-c2cccc(-c3nc4cc(C(F)(F)F)ccc4[nH]3)c2)c1,225
15,Oc1ccc(OCc2ccccn2)cc1,980
16,Cn1cc(-c2ccccc2C(=O)O)c(=O)c2cc(Cl)ccc21,917
17,CCC(C)(CC)C(=O)n1ncc2c3c(N)nc(N)nc3ccc21,6
18,CCCCCCN1CCCN(Cc2ccc(C(=O)Nc3ccc(F)c(F)c3)cc2)CC1,612
19,O=C(c1cccc(COc2ccc3c(c2)CCN(C2CCCC2)CC3)c1)N1CCN(c2ccncc2)CC1,740
20,Cc1nc2ccc3ccc(CNc4ccc(C#N)cc4)cc3c2c(=O)[nH]1,1440
21,CC(=O)Nc1ccc(C(=O)NC2CCN(c3ccnc4cc(Cl)ccc34)CC2)cc1,357
22,COc1ccc2nccc([C@@H](O)CN3CCC(NCc4cc5cccc(OCc6ccccc6)c5[nH]4)CC3)c2c1,899
23,Cc1noc(C)c1-c1ccc2c(Nc3ccccc3N3CCOCC3)c(C(=O)NCc3ccccc3)cnc2c1,1180
24,Nc1nc(N)c2cc(Sc3ccc4ccccc4c3)ccc2n1,17.1
25,OC1CCCN(Cc2ccc(-c3ccc(-c4nc5cc(F)ccc5[nH]4)cc3)cc2)C1 (centres undefined),854

row,SMILES,XC50 [nM]
1,CS(=O)(=O)Cc1ccc(Nc2nccc(-c3c(-c4cccc(NC(=O)c5c(F)cccc5F)c4)nn4ncccc34)n2)cc1,162
2,CCNC(=O)Nc1ccc(N(C)c2ccnc(Nc3ccc(CS(C)(=O)=O)cc3)n2)cc1,88.8
3,O=C(c1ccc(Cl)c(Cl)c1)N1CCc2c([nH]c3ccccc23)C1CN1CCCC1 (centres undefined),825
4,CCCOc1ccc(NC(=O)c2cccs2)cc1Cl,859
5,CCCCc1ccc(NC(=O)Nc2ccc3c(c2)CCNCC3)cc1,585
6,Cc1cc(N[C@@H](CC(C)C)C(=O)NCc2cccc(F)c2)nc(NCCc2ccc(F)cc2)n1,1470
7,O=C(Cn1c(CCc2cccc(F)c2F)nc(=O)c2cccnc21)N(Cc1ccc(-c2ccc(C(F)(F)F)cc2)cc1)C1CCN(C2CCOCC2)CC1,828
8,O=c1[nH]ccc2nc(N[C@@H]3CCNC3)nc(Nc3ccc4c(c3)S(=O)(=O)CC4)c12,377
9,Cc1nc(C)c(-c2ccc(Sc3ccc(Cl)cc3)cc2)c(O)c1Br,138
10,O=C(Cc1ccccc1)NC(Nc1ccc([N+](=O)[O-])cc1)C(Cl)(Cl)Cl (centres undefined),973
11,COC(=O)c1ccc(CC(C)NCC(O)c2ccc3ccc4ccccc4c3c2)cc1 (centres undefined),223
12,CC1CCN(CCCNc2ccc(C(=O)Nc3ccc(C(F)(F)F)cc3)cc2[N+](=O)[O-])CC1,340
13,COc1cc(Cc2cnc(N)nc2N)cc(OCCCCCC(N)=O)c1OC,1190
14,CC(C)Cn1ccc2c3c(N)nc(N)nc3ccc21,34.2
15,CC(C)NCc1ccc(-c2cccc(NC(=O)c3cccc(Cl)c3)c2)cc1,728
16,O=C(Nc1ccc(C2=NC3CCCCC3N2)cc1)Nc1ccc(C2=NC3CCCCC3N2)cc1 (centres undefined),179
17,Nc1cccc(CNCc2cccc(-c3cccc(-c4nc5ccccc5[nH]4)c3)c2)c1,615
18,COc1ccc(N2CCN(CCCCNC(=O)c3ccc(NC(=O)c4cccc(Cl)c4)cc3)CC2)c(OC)c1,911
19,O=C(NCCCCN1CCC(c2ccc3ccccc3c2O)CC1)c1ccc(NC(=O)c2ccc(Cl)cc2)cc1,1010
20,O=C(Nc1cc(C(F)(F)F)cc(C(F)(F)F)c1)c1cc(C(F)(F)F)cc(C(F)(F)F)c1,872
21,COc1cc2nc(-c3ccccc3)nc(N3CCN(CC(=O)N4CCCC4)CC3)c2cc1OC,1130
22,CCCc1cc(NCC)nc(Nc2ccc(F)cc2)n1,1030
23,CO/C(=C\C=C\c1cc2cc(Cl)c(Cl)cc2[nH]1)C(=O)NCCCN1CCN(C2CCCCC2)CC1,1010
24,COc1ccc(-n2nc(C)c3c2NC(=O)CC3c2ccccc2OCc2ccccc2F)cc1 (centres undefined),901
25,COc1ccc(-c2ccc(NC(=O)c3cccc(Cl)c3)cc2)cc1CN(C)CCO,710

row,SMILES,XC50 [nM]
1,COc1ccc(CNC2CCN(c3ccc(NC(=O)c4cccc(Cl)c4)cc3)CC2)cc1OC,1020
2,Cc1cccc2nc(-c3cccc(-c4cccc(NC(=O)c5cccnc5)c4)c3)[nH]c12,228
3,Cc1ccc2c(=O)n(C)c(=O)n(C)c2n1,819
4,Oc1ccc2[nH]c(-c3cccc(F)c3)nc2c1CN1CCC(O)(c2ccccc2)CC1,994
5,COc1ccc(NC(=O)[C@H](Cc2ccccc2)Nc2cc(C)nc(NCc3ccccc3C)n2)cc1,794
6,Cc1c(C(=O)C2CC2CN2CCC(N3CCCC3)CC2)sc2ccccc12 (centres undefined),1400
7,CCCCN1CCN(c2cc(NS(=O)(=O)c3ccc(C(=O)Nc4ccc(C(F)(F)F)cc4)cc3)ccc2OC)CC1,664
8,CCCCC(=O)N(CCOC)Cc1ccc(-c2ccc(CNCCC)cn2)cc1,730
9,COc1cccc2sc(Nc3nc(-c4ccccn4)cs3)nc12,805
10,CCOc1cc(C(=O)NC2CCN(Cc3ccccc3)CC2)ccc1-c1nc2cc(Cl)c(F)cc2[nH]1,802
11,Cc1ccc(/C=C/C(=O)NC2CCC(CN3CCC(c4c[nH]c5ccccc45)CC3)CC2)cc1C (centres undefined),832
12,CCC[C@@H]([C@@H](CC1CCCCC1)C(=O)N[C@H](C(=O)Nc1ccccn1)[C@H](C)CC)N(O)C=O,533
13,CNc1nc(Nc2ccccc2C)nc2ccccc12,443
14,CS(=O)(=O)c1cccc(-c2cnc3[nH]cc(-c4cccc(CCN)c4)c3c2)c1,1560
15,Cn1ccc(-c2cccc(Nc3ccnc4cc(-c5nccs5)ccc34)c2)n1,405
16,FC(F)(F)c1ccc2[nH]c(-c3ccc(-c4cccc(CNCC5CCCO5)c4)s3)nc2c1 (centres undefined),367
17,CN(C)CCNCc1ccc(-c2ccc(-c3nc4ccccc4[nH]3)s2)cc1,569
18,CC1CCN(c2nc(C(=O)NCCc3ccc(Cl)c(Cl)c3)c(C(C)C)s2)CC1,1930
19,COc1ccc(NC(=O)NC2CCN(c3ccnc4cc(Cl)ccc34)CC2)cc1,731
20,CCCCCCCN1CC[C@@H](CCCc2ccnc3ccc(OCCCCN/C(N)=N/O)cc23)[C@@H](CC)C1,952
21,COc1ccc(-c2onc(C(F)(F)F)c2-c2cc3ccccc3o2)c(O)c1,863
22,Cc1sc2ncnc(Sc3nc4ccccc4[nH]3)c2c1C,255
